Results reported in patent US20220079894A1, “STABLE PHARMACEUTICAL COMPOSITIONS” (priority 2020, published 2022).
Structures can show the parent of a compound that is named as a salt.

Assay: NDMA content of Metformin Extended Release Tablets by LC-MS
Type: physicochemical
Details: active substance of lot XP9004
Procedure: Of particular concern is the level of NDMA in a class of anti-diabetic drugs including metformin hydrochloride tablets. Since these drugs are administered over a long period of time to patients, the amount of NDMA impurity in such products is of particular concern. It has been established that the 96 ng is the Acceptable Daily Intake Limit (ADI) for N-Nitrosodimethylamine (NDMA) in Metformin Hydrochloride tablets. The levels of NDMA in metformin hydrochloride tablets can be determined by analytical methods like Liquid Chromatography-Mass Spectrometry. Other drugs that can have similar issues are anti-diabetic drugs, a drug to treat Gastroesophageal Reflux Diseases (GERD) or an Angiotensis II receptor antagonist drug (ARBs).
This meant that the potential daily exposure of NDMA in the product was 160 ng/day

- NDMA in the active substance used in the lot: no detectable NDMA
SMILES: CN(C)C(=N)N=C(N)N [active substance, Metformin Hydrochloride]
